{"source": "patent US8618082B2", "about": "“Lupeol anti-tumor agent and uses thereof” (Wisconsin Alumni Research Foundation, priority 2004, dated 2013)", "key": {"[1]": {"system": "epidermal ODC", "experiment": "TPA-induced epidermal ODC enzyme activity (14CO2 release)", "type": "in vivo, mouse", "settings": "for inhibition of TPA-caused induction of epidermal ODC activity: p<0.005", "description": "FIG. 3. Inhibitory effect of Lupeol on TPA-induced epidermal ODC activity: ODC enzyme activity was determined using 0.4 ml epidermal supernatant by measuring the release of ^14CO2 from the D, L-[^14C]ornithine. Data is represented as mean±SE of four individual values (* represents p<0.005). The epidermis from two animals was pooled for each determination.\nThe animals were shaved on the dorsal side of the skin, divided into four groups and treated topically on the shaved area with either 0.4 ml vehicle (acetone), or TPA (3.2 nmol/0.4 ml acetone/animal, v/v), or Lupeol (1 or 2 mg/0.2 ml acetone/animal, w/v) followed 30 min later with TPA (3.2 nmol/0.2 ml acetone/animal). Animals were sacrificed at different times point i.e. 6, 12, 24 and 48 h post TPA treatment. The epidermis was separated from the whole skin and homogenized in 0.1 M Tris-HCl buffer (pH 7.2) using a Polytron tissue homogenizer (Brinkmann Instruments, Westbury, N.Y., USA) at 100,000×g supernatant, and microsomal fractions were prepared as described earlier (Katiyar and Mukhtar, 1997). The sample of 6 h treatment group was used to assess the ODC activity as this time point has previously been shown for optimal induction of the enzyme (Katiyar er al., 1996).\nODC enzyme activity was determined using 0.4 ml epidermal supernatant by measuring the release of ^14CO2 from the D, L-[^14C] ornithine as reported earlier. (Gupta et al., 1999). The epidermis from the skin was homogenized at 4° C. in a glass-to-glass homogenizer in 10 volumes of ODC buffer [50 mM Tris-HCl buffer (pH 7.5) containing 0.1 mM EDTA, 0.1 mM dithiothreitol, 0.1 mM pyridoxal-5-phosphate, 1 mM 2-mercaptoethanol and 0.1% Tween-80]. The homogenate was centrifuged at 100,000×g at 4° C. and the supernatant was used for enzyme determination. […] The radioactivity was measured in a Beckman LS 6000 SC liquid scintillation counter. Enzyme activity was expressed as pmol CO2 released/h/mg protein."}, "[2]": {"system": "Fas receptor in LNCaP cells", "experiment": "Fas-siRNA silenced LNCaP cells: Fas expression and viability", "type": "cell-based, human", "settings": "vs LNCaP cells with Fas receptor expression treated with Lupeol", "description": "FIG. 17 depicts effect of Lupeol treatment on the growth of CaP cells transfected with Fas-siRNA and on the expression of Fas receptor in Fas-silenced CaP cells: (A). Cells were treated with specified concentrations of Lupeol alone, anti-Fas mAb or non-sense siRNA (negative control), Fas-siRNA, combination (Lupeol+Fas-siRNA) and combination (anti-Fas mAb+Fas-siRNA). The expression of Fas receptor protein in total cell lysate was determined by western blot analysis. Equal loading was confirmed by stripping immunoblots and reprobing them for β-actin. The immunoblots shown here are representative of three independent experiments with similar results. (B). Cells were treated with specified concentrations of Lupeol alone, anti-Fas mAb or non-sense siRNA (negative control), Fas-siRNA, combination (Lupeol+Fas-siRNA) and combination (anti-Fas mAb+Fas-siRNA). The values represent percent viable cells where vehicle-treated cells were regarded as 100% viable. Data represents mean value of percent viable cells±S.E of three independent experiments.\nTo determine whether Lupeol induces apoptosis of LNCaP cells selectively through Fas receptor, we used siRNA technology. siRNA's have the ability to silence […] any specific protein. We designed siRNA against Fas receptor protein and treated LNCaP cell with them."}, "[3]": {"system": "AsPC-1 cells", "experiment": "Viability of AsPC-1 cells, MTT assay", "type": "cell-based", "settings": "Lupeol for 24-72 hours", "description": "FIG. 20 depicts effect of Lupeol on viability of AsPC-1 cells. The cells were treated with specified concentrations of Lupeol for 24, 48 and 72 h, and cell viability was determined by MTT assay."}, "[4]": {"system": "human PSA", "experiment": "Serum PSA in athymic nude mice implanted with CWR22Rv1 cells", "type": "in vivo, mouse", "settings": "Lupeol 1 mg/animal i.p. three times a week, vs control mice", "from_the_text": "FIG. 19 depicts effect of Lupeol on human PSA levels in serum of athymic nude mice implanted with CWR22Rv1 cells. Data is represented as mean±SD. * indicates p<0.05.\nCW22Rv1 cells once implanted in a xenograft mouse model releases Prostate specific antigen (PSA) in host system and grows rapidly than LNCaP cells. PSA is a well known diagnostic biomarker of prostate cancer."}, "[5]": {"system": "LNCaP cells", "experiment": "Apoptosis in LNCaP cells by flow cytometry", "type": "cell-based, human", "settings": "Lupeol 5-30 μM", "description": "FIG. 11 depicts quantitative representation of Lupeol induced apoptosis in LNCaP cells as assessed by flow cytometry. Cells were treated with Lupeol (5-30 μM). Cells showing fluorescence above that of control population, as indicated by the line in each histogram, are considered as apoptotic cells. The images shown here are representative of independent experiments with similar results. The values shown inside each graph indicates percent apoptotic cells."}, "[6]": {"system": "pro-caspases-8 and -9 in LNCaP cells", "experiment": "Pro-caspases-8 and -9 expression in LNCaP cells (western blot)", "type": "cell-based, human", "description": "FIG. 13 depicts effect of Lupeol treatment on protein expression of pro-caspases-8 and -9 in LNCaP cells. Cells were treated with only specified concentrations of Lupeol for 48 h, harvested and total cell lysates were prepared. Expression of pro-caspases-8 and -9 were determined by western blot analysis. Equal loading was confirmed by stripping immunoblots and reprobing them for β-actin. The immunoblots shown here are representative of three independent experiments with similar results."}}, "note": "“Also recorded” adds a separate entry of the source.", "data": [{"smiles": "C=C(C)[C@@H]1CC[C@]2(C)CC[C@]3(C)[C@H](CC[C@@H]4[C@@]5(C)CC[C@H](O)C(C)(C)[C@@H]5CC[C@]43C)[C@@H]12", "note": "[Lupeol, Lup-20(29)-en-3β-ol]", "values": [{"measurement": "inhibition of TPA-caused induction of epidermal ODC activity", "setting": "[1]; Lupeol 1 mg/animal topical 30 min prior to TPA", "value": 50, "unit": "%"}, {"measurement": "inhibition of TPA-caused induction of epidermal ODC activity", "setting": "[1]; Lupeol 2 mg/animal topical 30 min prior to TPA", "value": 75, "unit": "%"}, {"measurement": "basal epidermal ODC activity", "setting": "[1]; Lupeol alone (2 mg/animal)", "value": "without any effect"}, {"measurement": "cell death of Fas-silenced LNCaP cells", "setting": "[2]", "value": "reduced cell death"}, {"measurement": "cell death of ASPC-1 cells", "setting": "[3]", "value": "highly significant dose dependent cell death"}, {"measurement": "serum PSA levels", "setting": "[4]", "value": "lower serum PSA levels"}, {"measurement": "induction of apoptosis in LNCaP cells", "setting": "[5]", "value": "due to apoptosis; also recorded: inducing apoptosis"}, {"measurement": "activation of Caspase-8 and 9 proteins", "setting": "[6]", "value": "induces the activation"}, {"measurement": "expression of inactive (pro-) caspases-8 and -9", "setting": "[6]; 48 h", "value": "causes disappearance of inactive caspases"}]}]}
